# Test system: Plasmodium falciparum
# Assay: Antimalarial activity after 48 hrs against atovaquone-resistant Plasmodium falciparum FCR3 by [3H]hypoxanthine uptake
# Assay type: functional, organism-based
row,SMILES,IC50
1,CCn1cc/c(=N\c2cccc(CCc3ccc(C(F)(F)F)cc3)c2)c(Cl)c1,1.87 µM
2,CC[N+](C)(CC)Cc1cc(/N=c2\ccn(C)cc2S(=O)(=O)N(C)C)ccc1OC,> 10 µM
3,CCn1cc/c(=N\c2ccc(CCc3ccccc3)cc2)c(Cl)c1,3.74 µM
4,CCn1cc/c(=N\c2cccc(CCc3ccccc3)c2)c(N)c1,2.08 µM
5,CCN(CC)Cc1cc(/N=c2\ccn(C)c(C)c2)ccc1O,8.09 µM
6,CCN(CC)Cc1cc(/N=c2\ccn(C)cc2C)ccc1O,> 10 µM
7,Cn1cc/c(=N\c2cccc(CCc3ccccc3)c2)c(Cl)c1,2.89 µM
8,COc1ccc(CCc2cccc(/N=c3\ccn(C)cc3Cl)c2)cc1,5.12 µM
9,CCn1cc(Cl)c(=Nc2cccc(CCc3ccc(OC(F)(F)F)cc3)c2)c(Cl)c1,2.8 µM
10,CCN(CC)Cc1cc(N=c2ccn(C)cc2)ccc1O,7.9 µM
11,CCn1cc/c(=N\c2cccc(CCc3ccc(OC(F)(F)F)cc3)c2)c(Cl)c1,1.7 µM
12,CCn1cc/c(=N\c2cccc(CCCc3ccccc3)c2)c(Cl)c1,2.25 µM
13,On1cc/c(=N\c2cccc(CCc3ccccc3)c2)c(Cl)c1,> 8900 µM
14,CCn1cc/c(=N\c2cccc(CCc3ccccc3)c2)c(Cl)c1,3.53 µM
15,CCn1cc/c(=N\c2cccc(CCc3ccc(Cl)cc3)c2)c(Cl)c1,2.17 µM
16,CCn1cc/c(=N\c2cccc(CCc3ccc(OC)cc3)c2)c(Cl)c1,3.95 µM
17,CCn1cc/c(=N\c2ccccc2CCc2ccccc2)c(Cl)c1,3.19 µM
18,Cn1cc/c(=N\c2cccc(CCc3ccccc3)c2)c(N)c1,2.21 µM
19,CC[N+](C)(CC)Cc1cc(/N=c2\ccn(C)c(C)c2)ccc1O,9.86 µM
20,CCn1cc/c(=N\c2cccc(CCc3ccc(OC(F)(F)F)cc3)c2)c(N)c1,1.83 µM
21,O=C1C(O)=C([C@H]2CC[C@H](c3ccc(Cl)cc3)CC2)C(=O)c2ccccc21 [ATOVAQUONE],1.89 µM
22,Cc1nc(C)c(Cl)c(O)c1Cl [CLOPIDOL],3.37 µM

# Test system: Plasmodium falciparum
# Assay: Antimalarial activity after 48 hrs against chloroquine-resistant Plasmodium falciparum W2 by [3H]hypoxanthine uptake
# Assay type: functional, organism-based
row,SMILES,IC50
1,CCn1cc/c(=N\c2cccc(CCc3ccc(C(F)(F)F)cc3)c2)c(Cl)c1,1.6 µM
2,CC[N+](C)(CC)Cc1cc(/N=c2\ccn(C)cc2S(=O)(=O)N(C)C)ccc1OC,> 50 µM
3,CCn1cc/c(=N\c2ccc(CCc3ccccc3)cc2)c(Cl)c1,> 10 µM
4,CCn1cc/c(=N\c2cccc(CCc3ccccc3)c2)c(N)c1,1.67 µM
5,CCN(CC)Cc1cc(/N=c2\ccn(C)c(C)c2)ccc1O,20.7 µM
6,CCN(CC)Cc1cc(/N=c2\ccn(C)cc2C)ccc1O,33 µM
7,Cn1cc/c(=N\c2cccc(CCc3ccccc3)c2)c(Cl)c1,4.75 µM
8,COc1ccc(CCc2cccc(/N=c3\ccn(C)cc3Cl)c2)cc1,5.24 µM
9,CCn1cc(Cl)c(=Nc2cccc(CCc3ccc(OC(F)(F)F)cc3)c2)c(Cl)c1,0.94 µM
10,CCN(CC)Cc1cc(N=c2ccn(C)cc2)ccc1O,8.61 µM
11,CCn1cc/c(=N\c2cccc(CCc3ccc(OC(F)(F)F)cc3)c2)c(Cl)c1,1.07 µM
12,CCn1cc/c(=N\c2cccc(CCCc3ccccc3)c2)c(Cl)c1,2.43 µM
13,On1cc/c(=N\c2cccc(CCc3ccccc3)c2)c(Cl)c1,> 8900 µM
14,CCn1cc/c(=N\c2cccc(CCc3ccccc3)c2)c(Cl)c1,3.46 µM
15,CCn1cc/c(=N\c2cccc(CCc3ccc(Cl)cc3)c2)c(Cl)c1,3.24 µM
16,CCn1cc/c(=N\c2cccc(CCc3ccc(OC)cc3)c2)c(Cl)c1,3.44 µM
17,CCn1cc/c(=N\c2ccccc2CCc2ccccc2)c(Cl)c1,6.77 µM
18,Cn1cc/c(=N\c2cccc(CCc3ccccc3)c2)c(N)c1,1.47 µM
19,CC[N+](C)(CC)Cc1cc(/N=c2\ccn(C)c(C)c2)ccc1O,> 50 µM
20,CCn1cc/c(=N\c2cccc(CCc3ccc(OC(F)(F)F)cc3)c2)c(N)c1,3.91 µM
21,Cc1nc(C)c(Cl)c(O)c1Cl [CLOPIDOL],9.73 µM
